From patent US9458220B2 (priority 2010, dated 2016)

Legend:
[1] = Dipeptide half life on IGF1 dipeptide extended (p-NH2-F)A19 analogs in PBS; type: physicochemical; conditions: Table 12; cleavage of (pNH2-Phe) amide linked dipeptide AibPro from the parent peptide
Protocol: Accordingly, the IGF1A chain alone was determined to be a good model for the study of pro-drug half life on IGF1 B:A (Y^B16L^B17) analog peptides. […] For simplicity, prodrug half lives were determined using only the IGF1 A chain in the absence of the B chain. The half lives of each propeptide was determined as described in Example 5.
The IGF^B16B17 analog peptide prodrugs were incubated in PBS, pH 7.4 at 37° C. and at predetermined time intervals an aliquot was taken and further degradation was quenched with 0.1% TFA and the aliquot was subjected to analytical HPLC analysis. Peaks a and b, representing the prodrug and active forms of the IGF^B16B17 analog peptide were identified with LC-MS and quantified by integration of peak area an HPLC. FIGS. 9A-9C show the output of an HPLC analysis of the degradation of the IGF^B16B17 analog peptide prodrug: IGF1A(Ala)^6,7,11,20(Aib-Pro-pNH—F)^19. Aliquots were taken at 20 minutes (FIG. 9A), 81 minutes (FIG. 9B) and 120 minutes (FIG. 9C) after beginning the incubation of the prodrug in PBS.

human insulin receptor = biological target: T1, human insulin receptor (Homo sapiens, UniProt P06213); test: Insulin receptor competition binding assay (scintillation proximity); conditions: Table 9
T1 construct: expressed in transfected cells; plasma membrane fragments

human IGF-1 receptor = biological target: T2, human IGF-1 receptor (Homo sapiens, UniProt P08069); test: IGF-1 receptor competition binding assay (scintillation proximity); conditions: Table 9
T2 construct: expressed in transfected cells; plasma membrane fragments
T2 sequence (P08069 31-736 limits assumed): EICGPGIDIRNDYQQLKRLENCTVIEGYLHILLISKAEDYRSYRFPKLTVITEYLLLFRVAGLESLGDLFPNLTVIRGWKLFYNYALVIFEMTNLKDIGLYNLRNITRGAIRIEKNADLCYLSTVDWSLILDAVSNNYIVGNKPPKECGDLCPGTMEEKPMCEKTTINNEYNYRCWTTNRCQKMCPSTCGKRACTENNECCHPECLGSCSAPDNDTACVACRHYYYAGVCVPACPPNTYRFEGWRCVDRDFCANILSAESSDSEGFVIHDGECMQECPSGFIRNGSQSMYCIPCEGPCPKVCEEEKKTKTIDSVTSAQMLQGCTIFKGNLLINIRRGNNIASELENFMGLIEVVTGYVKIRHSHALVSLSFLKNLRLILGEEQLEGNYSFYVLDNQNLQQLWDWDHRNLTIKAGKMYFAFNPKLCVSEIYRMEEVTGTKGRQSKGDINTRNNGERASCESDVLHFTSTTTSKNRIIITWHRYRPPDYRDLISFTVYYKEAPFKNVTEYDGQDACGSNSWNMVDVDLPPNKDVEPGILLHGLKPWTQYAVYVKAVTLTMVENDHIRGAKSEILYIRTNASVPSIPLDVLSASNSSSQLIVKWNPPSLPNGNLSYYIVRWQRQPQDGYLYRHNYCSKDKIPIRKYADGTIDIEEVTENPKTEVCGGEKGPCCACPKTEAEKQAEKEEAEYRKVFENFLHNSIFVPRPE
T2 sequence (P08069 741-1367 partner limits assumed): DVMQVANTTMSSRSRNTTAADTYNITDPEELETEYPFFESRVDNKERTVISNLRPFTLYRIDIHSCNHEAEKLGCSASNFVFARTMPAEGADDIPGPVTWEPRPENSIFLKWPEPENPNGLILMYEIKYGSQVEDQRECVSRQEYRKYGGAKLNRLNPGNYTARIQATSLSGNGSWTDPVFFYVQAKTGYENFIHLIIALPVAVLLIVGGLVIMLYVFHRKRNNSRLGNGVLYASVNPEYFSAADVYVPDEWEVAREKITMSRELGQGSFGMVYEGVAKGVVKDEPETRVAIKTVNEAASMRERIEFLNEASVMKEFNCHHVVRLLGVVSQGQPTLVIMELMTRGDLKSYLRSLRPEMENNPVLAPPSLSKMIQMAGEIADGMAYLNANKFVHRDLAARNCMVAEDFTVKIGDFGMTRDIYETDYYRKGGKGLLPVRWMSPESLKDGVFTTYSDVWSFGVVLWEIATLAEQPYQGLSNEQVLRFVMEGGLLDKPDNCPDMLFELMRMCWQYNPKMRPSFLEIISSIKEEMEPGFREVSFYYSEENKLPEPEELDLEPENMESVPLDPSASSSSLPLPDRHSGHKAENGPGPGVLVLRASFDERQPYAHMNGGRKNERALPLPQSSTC

T1 sequence (P06213 28-758 limits assumed): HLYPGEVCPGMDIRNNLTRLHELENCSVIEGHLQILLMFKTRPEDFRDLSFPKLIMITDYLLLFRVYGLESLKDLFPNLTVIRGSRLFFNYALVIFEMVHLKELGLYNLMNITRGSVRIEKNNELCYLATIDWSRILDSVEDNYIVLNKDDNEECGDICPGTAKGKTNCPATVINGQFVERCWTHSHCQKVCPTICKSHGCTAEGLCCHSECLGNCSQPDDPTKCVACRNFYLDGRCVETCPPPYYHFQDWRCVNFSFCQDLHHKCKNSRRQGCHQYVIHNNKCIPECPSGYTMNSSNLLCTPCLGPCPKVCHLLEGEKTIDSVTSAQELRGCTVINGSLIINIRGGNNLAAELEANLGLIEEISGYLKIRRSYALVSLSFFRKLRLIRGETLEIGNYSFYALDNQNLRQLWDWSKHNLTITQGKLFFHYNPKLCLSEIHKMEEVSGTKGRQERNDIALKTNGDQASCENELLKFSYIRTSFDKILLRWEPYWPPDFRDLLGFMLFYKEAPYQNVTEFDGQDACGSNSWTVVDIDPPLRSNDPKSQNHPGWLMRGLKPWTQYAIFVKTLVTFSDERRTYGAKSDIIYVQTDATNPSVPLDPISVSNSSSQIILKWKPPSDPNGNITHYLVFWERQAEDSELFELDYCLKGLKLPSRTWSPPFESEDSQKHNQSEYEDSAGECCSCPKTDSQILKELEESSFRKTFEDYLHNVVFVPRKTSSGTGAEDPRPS
T1 sequence (P06213 763-1382 partner limits assumed): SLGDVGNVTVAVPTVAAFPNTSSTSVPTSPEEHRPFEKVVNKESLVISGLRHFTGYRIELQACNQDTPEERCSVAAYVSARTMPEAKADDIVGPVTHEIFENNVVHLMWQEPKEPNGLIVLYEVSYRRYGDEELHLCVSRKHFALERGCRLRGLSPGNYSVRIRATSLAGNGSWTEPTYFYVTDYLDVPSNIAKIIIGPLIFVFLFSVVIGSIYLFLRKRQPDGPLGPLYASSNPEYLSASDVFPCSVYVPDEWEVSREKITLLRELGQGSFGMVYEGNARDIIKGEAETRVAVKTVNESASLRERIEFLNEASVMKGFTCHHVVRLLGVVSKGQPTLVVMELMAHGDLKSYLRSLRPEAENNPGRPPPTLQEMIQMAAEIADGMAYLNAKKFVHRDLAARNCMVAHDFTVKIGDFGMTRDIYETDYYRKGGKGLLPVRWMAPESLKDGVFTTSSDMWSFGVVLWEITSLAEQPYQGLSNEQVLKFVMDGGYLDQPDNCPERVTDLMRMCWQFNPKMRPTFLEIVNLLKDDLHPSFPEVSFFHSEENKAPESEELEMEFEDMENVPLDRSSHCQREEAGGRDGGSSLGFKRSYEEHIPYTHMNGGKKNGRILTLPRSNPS

Insulin Receptor % insulin (in test) (human insulin receptor) | Insulin Receptor % native insulin activity (0.6 nM) (human insulin receptor) | IGF-1 Receptor % IGF-1 (in test) (human IGF-1 receptor) | Structure (SMILES) | Half Life [1]
– | – | – | CC[C@H](C)[C@H](NC(=O)CN)C(=O)N[C@H](C(=O)N[C@@H](CC(=O)O)C(=O)N[C@@H](CCC(=O)O)C(=O)N[C@@H](CSCNC(C)=O)C(=O)N[C@@H](CSSC[C@H](NC(=O)[C@H](CC(C)C)NC(=O)[C@@H](NC(=O)[C@H](CCC(=O)O)NC(=O)[C@@H]1CCCN1C(=O)CN)[C@@H](C)O)C(=O)NCC(=O)N[C@@H](C)C(=O)N[C@@H](CCC(=O)O)C(=O)N[C@@H](CC(C)C)C(=O)N[C@H](C(=O)N[C@@H](CC(=O)O)C(=O)N[C@@H](C)C(=O)N[C@@H](CC(C)C)C(=O)N[C@@H](Cc1ccc(O)cc1)C(=O)N[C@@H](CC(C)C)C(=O)N[C@H](C(=O)N[C@@H](CSCNC(C)=O)C(=O)NCC(=O)N[C@@H](CC(=O)O)C(=O)N[C@@H](CCCNC(=N)N)C(=O)NCC(=O)N[C@@H](Cc1ccccc1)C(=O)N[C@@H](Cc1ccc(O)cc1)C(=O)N[C@@H](Cc1ccccc1)C(=O)N[C@@H](CC(N)=O)C(=O)N[C@@H](CCCCN)C(=O)N1CCC[C@H]1C(=O)N[C@H](C(N)=O)[C@@H](C)O)C(C)C)C(C)C)C(=O)N[C@@H](Cc1ccccc1)C(=O)N[C@@H](CCCNC(=N)N)C(=O)N[C@@H](CO)C(=O)N[C@@H](CSCNC(C)=O)C(=O)N[C@@H](CC(=O)O)C(=O)N[C@@H](CC(C)C)C(=O)N[C@@H](CCCNC(=N)N)C(=O)N[C@@H](CCCNC(=N)N)C(=O)N[C@@H](CC(C)C)C(=O)N[C@@H](CCC(=O)O)C(=O)N[C@@H](CCSC)C(=O)N[C@@H](Cc1ccc(NC(=O)[C@@H]2CCCN2C(=O)C(C)(C)N)cc1)C(=O)N[C@@H](CSCNC(C)=O)C(=O)N[C@@H](C)C(=O)O)C(C)C | 1.8 h
– | – | – | CC[C@H](C)[C@H](NC(=O)CN)C(=O)N[C@H](C(=O)N[C@@H](CC(=O)O)C(=O)N[C@@H](CCC(=O)O)C(=O)N[C@H]1CSSC[C@@H]2NC(=O)[C@H](CO)NC(=O)[C@H](CCCNC(=N)N)NC(=O)[C@H](Cc3ccccc3)NC(=O)[C@H](CSSC[C@H](NC(=O)[C@H](CC(C)C)NC(=O)[C@@H](NC(=O)[C@H](CCC(=O)O)NC(=O)[C@@H]3CCCN3C(=O)CN)[C@@H](C)O)C(=O)NCC(=O)N[C@@H](C)C(=O)N[C@@H](CCC(=O)O)C(=O)N[C@@H](CC(C)C)C(=O)N[C@@H](C(C)C)C(=O)N[C@@H](CC(=O)O)C(=O)N[C@@H](C)C(=O)N[C@@H](CC(C)C)C(=O)N[C@@H](Cc3ccc(O)cc3)C(=O)N[C@@H](CC(C)C)C(=O)N[C@@H](C(C)C)C(=O)N[C@H](C(=O)NCC(=O)N[C@@H](CC(=O)O)C(=O)N[C@@H](CCCNC(=N)N)C(=O)NCC(=O)N[C@@H](Cc3ccccc3)C(=O)N[C@@H](Cc3ccc(O)cc3)C(=O)N[C@@H](Cc3ccccc3)C(=O)N[C@@H](CC(N)=O)C(=O)N[C@@H](CCCCN)C(=O)N3CCC[C@H]3C(=O)N[C@H](C(N)=O)[C@@H](C)O)CSSC[C@@H](C(=O)N[C@@H](C)C(=O)O)NC(=O)[C@H](Cc3ccc(NC(=O)[C@@H]4CCCN4C(=O)C(C)(C)N)cc3)NC(=O)[C@H](CCSC)NC(=O)[C@H](CCC(=O)O)NC(=O)[C@H](CC(C)C)NC(=O)[C@H](CCCNC(=N)N)NC(=O)[C@H](CCCNC(=N)N)NC(=O)[C@H](CC(C)C)NC(=O)[C@H](CC(=O)O)NC2=O)NC1=O)C(C)C [IGF1 B:A(pNH2-Phe)^A19] | 1.6 h
62.4% | 193.5% | 3.6% | CC[C@H](C)[C@H](NC(=O)CN)C(=O)N[C@H](C(=O)N[C@@H](CC(=O)O)C(=O)N[C@@H](CCC(=O)O)C(=O)N[C@H]1CSSC[C@@H]2NC(=O)[C@H](CO)NC(=O)[C@H](CCCNC(=N)N)NC(=O)[C@H](Cc3ccccc3)NC(=O)[C@H](CSSC[C@H](NC(=O)[C@H](CC(C)C)NC(=O)[C@H](Cc3c[nH]cn3)NC(=O)[C@H](CCC(N)=O)NC(=O)[C@H](CC(N)=O)NC(=O)[C@@H](NC(=O)[C@@H](N)Cc3ccccc3)C(C)C)C(=O)NCC(=O)N[C@@H](C)C(=O)N[C@@H](CCC(=O)O)C(=O)N[C@@H](CC(C)C)C(=O)N[C@@H](C(C)C)C(=O)N[C@@H](CC(=O)O)C(=O)N[C@@H](C)C(=O)N[C@@H](CC(C)C)C(=O)N[C@@H](Cc3ccc(O)cc3)C(=O)N[C@@H](CC(C)C)C(=O)N[C@@H](C(C)C)C(=O)N[C@H](C(=O)NCC(=O)N[C@@H](CC(=O)O)C(=O)N[C@@H](CCCNC(=N)N)C(=O)NCC(=O)N[C@@H](Cc3ccccc3)C(=O)N[C@@H](Cc3ccc(O)cc3)C(=O)N[C@@H](Cc3ccccc3)C(=O)N[C@@H](CC(N)=O)C(=O)N[C@@H](CCCCN)C(=O)N3CCC[C@H]3C(=O)N[C@H](C(N)=O)[C@@H](C)O)CSSC[C@@H](C(=O)N[C@@H](C)C(N)=O)NC(=O)[C@H](Cc3ccc(O)cc3)NC(=O)[C@H](CCSC)NC(=O)[C@H](CCC(=O)O)NC(=O)[C@H](CC(C)C)NC(=O)[C@H](CCCNC(=N)N)NC(=O)[C@H](CCCNC(=N)N)NC(=O)[C@H](CC(C)C)NC(=O)[C@H](CC(=O)O)NC2=O)NC1=O)C(C)C [IGF-1 A: In B (1-5)-IGF-1 B (YL) (6-30)] | –
